Laboratory results reported in article PMC5161367, “Discovery of Novel Small Molecule Inhibitors of VEGF Expression in Tumor Cells Using a Cell-Based High Throughput Screening Platform” (PLoS ONE, 2016).

Tests used:
[1] = system: A375 human melanoma cells; experiment: Chick embryo tumor growth study; format: in vivo; conditions: A375 on CAM, single intravenous injection 500 μg per embryo, excised 6 days after dose
Method: The chick embryo tumor growth assay was performed as described previously with some modifications. A375 human melanoma cells (5 x 10^6) log-phase growth in a total volume of 40 μL RPMI1640 medium were inoculated into the CAM of 10-day old chick embryos. After 24 h, the embryo received a single intravenous injection of 100 μL of compound (500 μg per embryo) or vehicle control (5% Cremaphor and 5% ethanol in PBS). The embryos were incubated for another 6 days, at which time the embryos were sacrificed. Tumors that formed at the primary site were excised, trimmed free of surrounding CAM tissue, and weighed.
To test the hypothesis that targeting VEGF post-transcriptionally can be a useful approach for the treatment of cancers, we initially evaluated the efficacy of the compounds in a chick embryo tumor growth model, known to be angiogenesis-dependent. Briefly, A375 human melanoma cells were seeded on the chorioallantoic membrane (CAM) of 10 day old chick embryos and, after 24 h, the embryo received a single intravenous injection of 100 μL of compound (500 μg per embryo) or vehicle control (5% Cremaphor and 5% ethanol in PBS). Tumors were grown for seven days, excised, and their wet weights were determined.
A375 human melanoma cells (5 x 10^6) were inoculated into the CAM of 10-days-old chick embryos. […]

hFGF-2 = experiment: HT1080 xenograft pharmacodynamic model, intratumor hFGF-2; format: in vivo, mouse; conditions: twice per day for 7 days
Method: Log phase growing tumor cells (5–10 x 10^6 cells/mouse, depending on the cell line) were implanted subcutaneously in athymic nude mice. When the average tumor size reached the indicated size, mice were randomly divided into groups and administered vehicle (5% DMSO/ 95% PEG-300) or test compounds by oral gavage. Tumor volumes were measured twice per week using digital calipers and body weights once per week. Tumor volume was determined according to the formula: L x (W)^2/2, where L is the longest dimension and W is the shortest dimension.
At the end of experiments, the tumors were excised from mice and homogenized on ice using a Powergen homogenizer fitted with Omni-Tip disposable/reusable probes (both from Fisher Scientific) in Tris-HCl buffer containing a cocktail of proteinase inhibitors. Intra-tumor human VEGF levels, as well as levels of other growth factors or proteins, were subsequently measured using commercially available ELISA kits (R&D Systems). Protein concentrations of the homogenates were determined using the Bradford protein assay (Bio-Rad) and intratumor growth factor levels were normalized to the total protein concentration.
Among the VEGF UTR-selective compounds identified, PTC-858 is a potent hit with adequate pharmaceutical properties (data not shown). […]

EPO = EPO ELISA in HepB3 cells under hypoxia; format: cell-based; conditions: Homo sapiens; HepB3 cells under hypoxia (1% oxygen), 48 hours
Method: (§1) Cells were treated with vehicle control (0.5% DMSO) or compounds at the indicated concentration for 48 hours, and specific proteins in conditioned medium were quantified using commercially available ELISA kits (R&D Systems) according to the manufacturer’s recommendations. VEGF was quantified in HeLa cells under hypoxia (1% oxygen); Tumor necrosis factor alpha (TNFα) was quantified in CEM cells stimulated with 1 μg/mL interleukin-1 beta (Sigma); erythropoietin (EPO) was quantified in HepB3 cells under hypoxic conditions (1% oxygen); and granulocyte colony-stimulating factor (G-CSF), basic fibroblast growth factor (FGF-2) and insulin-like growth factor 1 (IGF-1) were quantified without induction in HT1080 cells, HeLa cells and HepG2 cells, respectively.
(§2) Several target proteins were chosen as selectivity counter-screens, including TNF-alpha, FGF-2, G-CSF, IGF-1, and EPO. Similar to that of VEGF, the expression levels of these proteins are post-transcriptionally regulated, either through a 5’-UTR IRES, 3’-UTR AU-rich elements (AREs), or both.

FGF-2 = FGF-2 ELISA in HeLa cells under normoxia; format: cell-based; conditions: Homo sapiens; HeLa cells under normoxia (21% oxygen), 48 hours; read-out: ELISA EC50, FGF2
Method: as §1, §2

IGF-1 = IGF-1 ELISA in HepG-2 cells under normoxia; format: cell-based; conditions: Homo sapiens, HepG2; HepG-2 cells under normoxia (21% oxygen), 48 hours
Method: as §1, §2

hERG ion channel = hERG ion channel (Homo sapiens, UniProt Q12809); format: biochemical
Sequence of hERG ion channel (Q12809 whole entry): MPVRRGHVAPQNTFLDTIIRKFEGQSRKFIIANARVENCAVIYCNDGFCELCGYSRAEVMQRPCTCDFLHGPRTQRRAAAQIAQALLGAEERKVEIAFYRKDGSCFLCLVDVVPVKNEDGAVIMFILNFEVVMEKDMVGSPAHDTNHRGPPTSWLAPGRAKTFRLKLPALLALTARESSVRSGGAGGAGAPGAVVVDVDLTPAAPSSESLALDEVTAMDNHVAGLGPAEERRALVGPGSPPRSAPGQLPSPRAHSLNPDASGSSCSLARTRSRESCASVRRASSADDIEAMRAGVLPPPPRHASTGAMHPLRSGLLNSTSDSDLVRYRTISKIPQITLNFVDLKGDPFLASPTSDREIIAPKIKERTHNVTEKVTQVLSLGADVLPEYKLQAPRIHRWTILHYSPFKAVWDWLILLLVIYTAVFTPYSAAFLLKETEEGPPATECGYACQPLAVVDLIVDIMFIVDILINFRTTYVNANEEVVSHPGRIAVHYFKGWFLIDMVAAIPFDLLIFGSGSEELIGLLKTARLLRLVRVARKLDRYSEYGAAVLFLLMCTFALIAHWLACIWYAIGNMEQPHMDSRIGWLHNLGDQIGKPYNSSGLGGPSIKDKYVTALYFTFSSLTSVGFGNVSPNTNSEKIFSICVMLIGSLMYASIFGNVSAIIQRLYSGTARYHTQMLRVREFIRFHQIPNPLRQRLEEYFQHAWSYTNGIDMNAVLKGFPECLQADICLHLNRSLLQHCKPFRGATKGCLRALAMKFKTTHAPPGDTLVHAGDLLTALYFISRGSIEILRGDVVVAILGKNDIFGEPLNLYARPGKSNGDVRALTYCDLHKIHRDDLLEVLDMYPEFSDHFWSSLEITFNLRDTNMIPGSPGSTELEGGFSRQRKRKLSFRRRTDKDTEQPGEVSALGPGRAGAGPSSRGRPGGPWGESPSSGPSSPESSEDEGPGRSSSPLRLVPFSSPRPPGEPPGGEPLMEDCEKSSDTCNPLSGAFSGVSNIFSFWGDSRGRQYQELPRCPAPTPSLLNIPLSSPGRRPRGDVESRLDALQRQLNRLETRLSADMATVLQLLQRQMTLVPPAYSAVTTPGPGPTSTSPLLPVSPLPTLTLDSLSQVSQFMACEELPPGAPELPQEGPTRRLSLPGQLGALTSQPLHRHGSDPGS
Method: (§3) Pharmacological characterization of PTC-510. Pharmacological assays were performed to characterize PTC-510, including metabolic stability in human, primate mouse and rat liver microsomes; absorption in Caco-2 cells; in vitro effect on hERG ion channel; pharmacokinetics; and acute toxicity in the rat.

[2] = Plasma exposure after a single oral dose in mice; format: in vivo, mouse; conditions: male C57BL/6 mice, single oral dose 10 mg/kg, 5% DMSO and 95% PEG300
Method: Supplementary file pone.0168366.s006.doc: S6 Fig Exposure of PTC-510 after oral administration. Male C57BL/6 mice were dosed with test compound in 5% DMSO and 95% PEG300. At specified time points (3 mice per time point), mice were euthanized and blood collected by terminal cardiac puncture. Plasma test compounds were then measured by LC/MS-MS. (DOC) Click here for additional data file.
Male C57BL/6 mice were administered test compounds in 5% DMSO and 95% PEG300 at a dose of 10 mg/kg. At specified time points (3 mice per time point), mice were euthanized and blood collected by terminal cardiac puncture. Plasma concentrations of test compounds were then quantified by LC/MS-MS.

[3] = Microsome metabolism - murine; format: in vitro ADME, mouse
Method: as §3

[4] = Microsome metabolism - dog; format: in vitro ADME
[5] = Microsome metabolism - human; format: in vitro ADME
Method: as §3

[6] = Microsome metabolism - primate; format: in vitro ADME
Method: as §3

Cyp3A4 = Cyp3A4 (Homo sapiens, UniProt P08684); experiment: p450 inhibition Cyp3A4; format: in vitro ADME
Sequence of Cyp3A4 (P08684 whole entry): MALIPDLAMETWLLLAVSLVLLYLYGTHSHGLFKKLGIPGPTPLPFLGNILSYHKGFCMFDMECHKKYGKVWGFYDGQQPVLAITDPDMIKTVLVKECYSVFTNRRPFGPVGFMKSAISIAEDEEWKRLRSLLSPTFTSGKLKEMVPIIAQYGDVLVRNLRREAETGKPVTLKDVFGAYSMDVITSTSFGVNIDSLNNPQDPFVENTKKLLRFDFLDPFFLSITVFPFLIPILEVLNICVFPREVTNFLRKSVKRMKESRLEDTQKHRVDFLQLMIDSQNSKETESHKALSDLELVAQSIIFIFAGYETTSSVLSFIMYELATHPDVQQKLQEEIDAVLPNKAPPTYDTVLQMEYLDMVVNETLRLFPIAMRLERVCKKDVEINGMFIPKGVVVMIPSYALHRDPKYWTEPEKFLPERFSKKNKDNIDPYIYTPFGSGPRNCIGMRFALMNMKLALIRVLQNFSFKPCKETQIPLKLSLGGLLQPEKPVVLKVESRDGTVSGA

Brc1ccc2[nH]c3c(c2c1)CCCC3n1cccc1 (stereo not shown) [PTC-858, 6-bromo-1-(1H-pyrrol-1-yl)-2,3,4,9-tetrahydro-1H-carbazole]
tumor size (wet weight) vs no-treatment or vehicle controls [1]: significantly reduced tumor size
changes in FGF-2 in vivo (hFGF-2; 200 mg/kg orally): not significant
intratumor hFGF-2 (hFGF-2; 200 mg/kg, oral, mean +/- SD, n = 10): 3126.8 ± 1073.7 pg/mg total tumor proteins
EC50 (EPO): 8.1 µM
EC50 (FGF-2): 0.58 µM
EC50 (IGF-1): > 30 µM

COc1ccc(C2c3[nH]c4ccc(Br)cc4c3CC3C(=O)N(C4CCCCC4)C(=S)N32)cc1.O=C(O)C(F)(F)F (stereo not shown) [PTC-510, 9-bromo-2-cyclohexyl-5-(4-methoxyphenyl)-3-thioxo-2,3,5,6,11,11a-hexahydro-1H-imidazo[1’,5’:1,6]pyrido[3,4-b]indol-1-one trifluoroacetate]
HERG % inhibition @ 10 µM (hERG ion channel): 2%
bio-availability and exposure compared to PTC-858 [2]: much better bio-availability and exposure
Microsome metabolism - murine, % loss @ 1 h [3]: 0%
Microsome metabolism - dog, % loss @ 1 h [4]: 0%
Microsome metabolism - human, % loss @ 1 h [5]: 0%
Microsome metabolism - primate, % loss @ 1 h [6]: 0%
IC50 (Cyp3A4): 3.7 µM
